The source of these data is patent publication US20140221286A1, “SODIUM CHANNEL BLOCKERS REDUCE GLUCAGON SECRETION” (Gilead Sciences, Inc., priority 2011, published 2014).

Holding throughout (type): cell-based
The test system of assay [1] is rat pancreatic islets. Description: Veratridine-induced glucagon secretion in rat pancreatic islets. The conditions noted are these: veratridine 30 μM.
Assay [2] deals with α-TC1 clone 9 cells. The conditions noted are these: for Glucagon Secretion % Inhibition: veratridine-induced (30 μM for 1 hour), at a given concentration (not given). As for the experimental part:
Voltage-dependent block (VDB) of […] was determined by whole-cell voltage-clamp recordings of sodium current using a QPatch 16× automated electrophysiological system in HEK 293 cells overexpressing Nav 1.3 and Nav 1.7 sodium channels, respectively. VDB of peak current was measured using an 8 s conditioning prepulse (to -55 mV for NaV1.3 and to −60 mV for […]) followed by a test pulse (0 mV, 20 ms). Currents are normalized to the peak current recorded in the absence of drug and expressed as percent inhibition. […] Glucagon secretion in the cells was induced by the treatment with veratridine at 30 μM for 1 hour in Krebs-Ringer buffer containing 0.1% BSA. Percent inhibition of glucagon secretion by Na channel blockers was calculated from the reduction of veratridine-induced glucagon secretion in the absence of drug.
Cells were seeded at 0.4×10^5/well in 96-well plates and allowed to recover for 1 day. The media was then changed to serum-free DMEM and incubated overnight. Cells were then treated with sodium-channel blockers in the presence of veratridine (15 μM) in Krebs-Ringer buffer containing 0.1% BSA and 3 mM glucose for 1 h. Supernatants were collected and stored at −80° C. until analysis. Glucagon levels were measured by an ELISA kit.

Assay [3] deals with rat isolated pancreatic α-cell. The assay can be described thus: Spontaneous electrical activity of isolated pancreatic α-cells (membrane potential recording). As for the experimental part: Acutely isolated pancreatic islets were allowed to recover overnight at 37° C./5% CO2 in Islet Media (RMPI 1640 supplemented with 10 mM HEPES, 1 mM sodium pyruvate, 10% FBS, 100 U/mL penicillin, 100 μg/mL streptomycin, 2 mM L-glutamine). The islets were resuspended and then centrifuged for 3 minutes at 200×g. […] The number of live cells was counted and diluted to 1×10^5 with Islet Media. […]
Membrane potential and ion channel currents were recorded 24-72 hours after dispersion using the perforated patch configuration. […] Series resistance (Rs) was monitored using a voltage step from −70 mV to 0 mV (5 ms, 0.5 Hz) and was allowed to stabilize prior to beginning the experiment (Rs<30 MOhm).
The identity of the α-cell was confirmed using cell size (membrane capacitance <6 pF) and the presence of electrical activity in low (3 mM) extracellular glucose, which are hallmarks of dispersed α-cells. […] All recordings were made using pClamp 10.2 and were analyzed using Microsoft Excel 2003, Graphpad Prism7 or OriginPro7.
Recordings of membrane potential were made at 32° C. […] Representative records (30 sec) were analyzed using the event detection feature (threshold of 10 mV) to quantitate the spontaneous firing frequency and total charge movement. The membrane potential between events was measured for changes induced by the compound. […]

In the case of `COc1ccccc1OCC(O)CN1CCN(CC(=O)Nc2c(C)cccc2C)CC1` (racemic) [Ranolazine, ±-N-(2,6-dimethylphenyl)-4-[2-hydroxy-3-(2-methoxyphenoxy)-propyl]-1-piperazineacetamide], the “reduction of veratridine-induced glucagon secretion (in words)” value in assay [1] is recorded as “concentration-dependently reduced”. Further, the “Glucagon Secretion % Inhibition” value in assay [2] is given as 29.99%. Besides, the “reduction of spontaneous electrical activity” value in assay [3] (10 μM) was 44%.

In the case of `FC(F)(F)Oc1ccc(-c2ccc3nnc(C(F)(F)F)n3c2)cc1` [Compound A, 6-(4-(trifluoromethoxy)phenyl)-3-(trifluoromethyl)-[1,2,4]triazolo[4,3-α]pyridine], the “reduction of veratridine-induced glucagon secretion (in words)” value in assay [1] is recorded as “concentration-dependently reduced”. The “reduction of veratridine-induced increase of glucagon secretion” value in assay [2] (veratridine 15 μM, at 3 μM) worked out at 70±4%. Also, in assay [2], the “Glucagon Secretion % Inhibition” value was 74.17%. Further, the “reduction of spontaneous electrical activity” value in assay [3] (at 0.3 μM) amounted to 75%.
